# Earlier results as cited in patent publication US6906044B2, “Regeneration of articular cartilage damaged by grade I and II osteoarthritis by means of the intraarticular application of a mixture of sodium hyaluronate and chondroitin sulfate in a gel vehicle” (Alcon, Inc., priority 2001, dated 2005).
# System: injured knees of the horses
# Conditions: observed by veterinarians at racetracks
substance,measurement,value
sodium hyaluronate,reaction in injured knees,beneficial reaction
